pIC50, pKi: −log10 of the molar value.
Columns and labels:
[1] = tested on: phospho-SLP-76 (Ser376) in Jurkat cells; test: Phospho-SLP-76 (Ser376) Homogeneous Time Resolved Fluorescence (HTRF) assay in Jurkat cells; assay type: cell-based; conditions: Homo sapiens, Phospho-SLP-76 (Ser376) HTRF, anti-CD3 stimulation, read-out: SLP76 Assay_IC50
Method in brief: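 Jurkat cells pre-treated 30 min with compounds (10 μM to 0.1 nM, 11-point, 0.1% DMSO), then stimulated with 200 μg/mL F(ab)2-complexed anti-CD3 (UCHT1) for 15 min at 37 °C. Lysate phospho-SLP-76 detected by HTRF after overnight antibody incubation; IC50 from four-parameter fit.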

[2] = target: human full-length recombinant HPK1 (Homo sapiens (Human), UniProt Q92918); test: HPK1 biochemical enzyme assay, microfluidic mobility shift assay (MSA); conditions: HPK1 mobility shift assay; read-out: HPK1 Enzyme Assay_Ki
Sequence of human full-length recombinant HPK1 (Q92918 whole entry): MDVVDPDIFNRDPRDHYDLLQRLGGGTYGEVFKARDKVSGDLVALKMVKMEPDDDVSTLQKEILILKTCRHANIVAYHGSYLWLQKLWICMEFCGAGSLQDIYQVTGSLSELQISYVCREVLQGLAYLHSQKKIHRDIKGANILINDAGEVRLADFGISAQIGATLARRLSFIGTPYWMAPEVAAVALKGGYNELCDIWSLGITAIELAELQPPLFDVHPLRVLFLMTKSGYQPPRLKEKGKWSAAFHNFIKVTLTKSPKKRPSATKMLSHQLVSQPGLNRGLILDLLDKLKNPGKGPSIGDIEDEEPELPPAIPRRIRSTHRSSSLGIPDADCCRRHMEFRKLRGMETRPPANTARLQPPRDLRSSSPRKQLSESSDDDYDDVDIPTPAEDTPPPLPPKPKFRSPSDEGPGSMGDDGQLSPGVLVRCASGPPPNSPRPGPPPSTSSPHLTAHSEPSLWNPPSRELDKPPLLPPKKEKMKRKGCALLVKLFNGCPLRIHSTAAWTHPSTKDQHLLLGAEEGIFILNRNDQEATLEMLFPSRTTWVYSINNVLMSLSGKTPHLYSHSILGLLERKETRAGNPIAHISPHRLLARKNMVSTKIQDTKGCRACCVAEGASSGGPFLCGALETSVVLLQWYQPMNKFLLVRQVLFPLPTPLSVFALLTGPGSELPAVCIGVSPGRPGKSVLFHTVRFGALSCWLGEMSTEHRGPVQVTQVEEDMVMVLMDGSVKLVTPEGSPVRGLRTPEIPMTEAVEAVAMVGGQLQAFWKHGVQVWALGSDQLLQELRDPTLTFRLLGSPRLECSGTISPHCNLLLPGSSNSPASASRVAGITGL

Row | pIC50 [1] | pKi [2] | Structure (SMILES)
1 | 6.52 | 8.84 | CNCc1nc(C2CC2)cc2c1CN(c1cccc(N3C(=O)OC[C@@H]3CF)n1)C2=O [Example 87, 6-cyclopropyl-2-{6-[(4R)-4-(fluoromethyl)-2-oxo-1,3-oxazolidin-3-yl]pyridin-2-yl}-4-[(methylamino)methyl]-2,3-dihydro-1H-pyrrolo[3,4-c]pyridin-1-one]
2 | 5.57 | 8.60 | CCN(CC)c1cc2c(c(CN(C)C)n1)CN(c1cccc(-c3nncn3CC)n1)C2=O [Example 88, 6-(diethylamino)-4-[(dimethylamino)methyl]-2-[6-(4-ethyl-4H-1,2,4-triazol-3-yl)pyridin-2-yl]-2,3-dihydro-1H-pyrrolo[3,4-c]pyridin-1-one]
3 | 7.27 | > 10.10 | CCn1cnnc1-c1cccc(N2Cc3c(cc(N(C)C(C)C)nc3CN)C2=O)n1 [Example 89, 4-(aminomethyl)-2-[6-(4-ethyl-4H-1,2,4-triazol-3-yl)pyridin-2-yl]-6-[methyl(propan-2-yl)amino]-2,3-dihydro-1H-pyrrolo[3,4-c]pyridin-1-one]
4 | 6.16 | 8.84 | CCCn1cnnc1-c1cccc(N2Cc3c(cc(C4(C)CC4)nc3CN)C2=O)n1 [Example 90, 4-(aminomethyl)-6-(1-methylcyclopropyl)-2-[6-(4-propyl-4H-1,2,4-triazol-3-yl)pyridin-2-yl]-2,3-dihydro-1H-pyrrolo[3,4-c]pyridin-1-one]
5 | 6.59 | 9.48 | CNCc1nc(C2(C)CC2)cc2c1CN(c1cccc(N3C(=O)OC[C@@H]3CF)n1)C2=O [Example 91, 2-{6-[(4R)-4-(fluoromethyl)-2-oxo-1,3-oxazolidin-3-yl]pyridin-2-yl}-4-[(methylamino)methyl]-6-(1-methylcyclopropyl)-2,3-dihydro-1H-pyrrolo[3,4-c]pyridin-1-one]
6 | 6.65 | 9.37 | CCn1cnnc1-c1cccc(N2Cc3c(cc(N4CCC4)nc3CNC)C2=O)n1 [Example 92, 6-(azetidin-1-yl)-2-[6-(4-ethyl-4H-1,2,4-triazol-3-yl)pyridin-2-yl]-4-[(methylamino)methyl]-2,3-dihydro-1H-pyrrolo[3,4-c]pyridin-1-one]
7 | 6.15 | 9.38 | CCCn1cnnc1-c1cccc(N2Cc3c(cc(N4CCC4)nc3CNC)C2=O)n1 [Example 93, 6-(azetidin-1-yl)-4-[(methylamino)methyl]-2-[6-(4-propyl-4H-1,2,4-triazol-3-yl)pyridin-2-yl]-2,3-dihydro-1H-pyrrolo[3,4-c]pyridin-1-one]
8 | 6.55 | 9.47 | CCCn1cnnc1-c1cccc(N2Cc3c(cc(C4(C)CC4)nc3CNC)C2=O)n1 [Example 94, 4-[(methylamino)methyl]-6-(1-methylcyclopropyl)-2-[6-(4-propyl-4H-1,2,4-triazol-3-yl)pyridin-2-yl]-2,3-dihydro-1H-pyrrolo[3,4-c]pyridin-1-one]
9 | 6.77 | 9.29 | CCn1cnnc1-c1cccc(N2Cc3c(cc(C4(C)CC4)nc3CNC)C2=O)n1 [Example 95, 2-[6-(4-ethyl-4H-1,2,4-triazol-3-yl)pyridin-2-yl]-4-[(methylamino)methyl]-6-(1-methylcyclopropyl)-2,3-dihydro-1H-pyrrolo[3,4-c]pyridin-1-one]
10 | 6.85 | 9.40 | CCN(CC)c1cc2c(c(CNC)n1)CN(c1cccc(-c3cnc(C)n3CC)n1)C2=O [Example 96, 6-(diethylamino)-2-[6-(1-ethyl-2-methyl-1H-imidazol-5-yl)pyridin-2-yl]-4-[(methylamino)methyl]-2,3-dihydro-1H-pyrrolo[3,4-c]pyridin-1-one]
11 | 6.73 | 9.47 | CCN(CC)c1cc2c(c(CNC)n1)CN(c1cccc(-c3nnc(C)n3CC)n1)C2=O [Example 97, 6-(diethylamino)-2-[6-(4-ethyl-5-methyl-4H-1,2,4-triazol-3-yl)pyridin-2-yl]-4-[(methylamino)methyl]-2,3-dihydro-1H-pyrrolo[3,4-c]pyridin-1-one]
12 | 6.29 | 9.02 | CCN(c1cc2c(c(CNC)n1)CN(c1cccc(N3C(=O)OC[C@@H]3CF)n1)C2=O)C(C)C [Example 98, 6-[ethyl(propan-2-yl)amino]-2-{6-[(4R)-4-(fluoromethyl)-2-oxo-1,3-oxazolidin-3-yl]pyridin-2-yl}-4-[(methylamino)methyl]-2,3-dihydro-1H-pyrrolo[3,4-c]pyridin-1-one]
13 | 7.47 | > 10.30 | CC(C)N(C)c1cc2c(c(CN)n1)CN(c1cccc(N3C(=O)OC[C@@H]3C)n1)C2=O [Example 100, 4-(aminomethyl)-2-{6-[(4S)-4-methyl-2-oxo-1,3-oxazolidin-3-yl]pyridin-2-yl}-6-[methyl(propan-2-yl)amino]-2,3-dihydro-1H-pyrrolo[3,4-c]pyridin-1-one]
14 | 6.66 | 9.03 | CCn1cnnc1-c1cccc(N2Cc3c(cc(C4CCC4)nc3CNC)C2=O)n1 [Example 101, 6-cyclobutyl-2-[6-(4-ethyl-4H-1,2,4-triazol-3-yl)pyridin-2-yl]-4-[(methylamino)methyl]-2,3-dihydro-1H-pyrrolo[3,4-c]pyridin-1-one]
15 | 7.13 | 9.54 | [2H]C([2H])([2H])C([2H])([2H])N(c1cc2c(c(CNC)n1)CN(c1cccc(-c3nncn3CC)n1)C2=O)C([2H])([2H])C([2H])([2H])[2H] [Example 102, 6-{bis[(pentadeuterio)ethyl]amino}-2-[6-(4-ethyl-4H-1,2,4-triazol-3-yl)pyridin-2-yl]-4-[(methylamino)methyl]-2,3-dihydro-1H-pyrrolo[3,4-c]pyridin-1-one]
16 | 6.70 | 8.94 | CCCn1cnnc1-c1cccc(N2Cc3c(cc(C4CCC4)nc3CNC)C2=O)n1 [Example 103, 6-cyclobutyl-4-[(methylamino)methyl]-2-[6-(4-propyl-4H-1,2,4-triazol-3-yl)pyridin-2-yl]-2,3-dihydro-1H-pyrrolo[3,4-c]pyridin-1-one]
17 | 7.29 | 9.89 | CNCc1nc(N2CCC[C@H]2C)cc2c1CN(c1cccc(-c3nncn3C(C)C)n1)C2=O [Example 104, 4-[(methylamino)methyl]-6-[(2R)-2-methylpyrrolidin-1-yl]-2-{6-[4-(propan-2-yl)-4H-1,2,4-triazol-3-yl]pyridin-2-yl}-2,3-dihydro-1H-pyrrolo[3,4-c]pyridin-1-one]
18 | 7.19 | 9.68 | CCCn1cnnc1-c1cccc(N2Cc3c(cc(N4[C@H](C)CC[C@H]4C)nc3CNC)C2=O)n1 [Example 105, 6-[(2R,5R)-2,5-dimethylpyrrolidin-1-yl]-4-[(methylamino)methyl]-2-[6-(4-propyl-4H-1,2,4-triazol-3-yl)pyridin-2-yl]-2,3-dihydro-1H-pyrrolo[3,4-c]pyridin-1-one]
19 | 7.08 | 9.59 | CCn1cnnc1-c1cccc(N2Cc3c(cc(N4[C@H](C)CC[C@H]4C)nc3CNC)C2=O)n1 [Example 106, 6-[(2R,5R)-2,5-dimethylpyrrolidin-1-yl]-2-[6-(4-ethyl-4H-1,2,4-triazol-3-yl)pyridin-2-yl]-4-[(methylamino)methyl]-2,3-dihydro-1H-pyrrolo[3,4-c]pyridin-1-one]
20 | 7.66 | 10.40 | CC(C)n1cnnc1-c1cccc(N2Cc3c(cc(N4CCC[C@H]4C)nc3CN)C2=O)n1 [Example 107, 4-(aminomethyl)-6-[(2R)-2-methylpyrrolidin-1-yl]-2-{6-[4-(propan-2-yl)-4H-1,2,4-triazol-3-yl]pyridin-2-yl}-2,3-dihydro-1H-pyrrolo[3,4-c]pyridin-1-one]
21 | 6.23 | 8.43 | CCN(c1cc2c(c(CNC)n1)CN(c1cccc(-c3nncn3C)n1)C2=O)C(C)C [Example 108, 6-[ethyl(propan-2-yl)amino]-4-[(methylamino)methyl]-2-[6-(4-methyl-4H-1,2,4-triazol-3-yl)pyridin-2-yl]-2,3-dihydro-1H-pyrrolo[3,4-c]pyridin-1-one]
22 | 7.92 | 10.22 | CNCc1nc(N2CCCC2(C)C)cc2c1CN(c1cccc(-c3nncn3C(C)C)n1)C2=O [Example 109, 6-(2,2-dimethylpyrrolidin-1-yl)-4-[(methylamino)methyl]-2-{6-[4-(propan-2-yl)-4H-1,2,4-triazol-3-yl]pyridin-2-yl}-2,3-dihydro-1H-pyrrolo[3,4-c]pyridin-1-one]
23 | 7.07 | 9.49 | CCn1cnnc1-c1cccc(N2Cc3c(cc(N4[C@H](C)CC[C@H]4C)nc3CN)C2=O)n1 [Example 110, 4-(aminomethyl)-6-[(2R,5R)-2,5-dimethylpyrrolidin-1-yl]-2-[6-(4-ethyl-4H-1,2,4-triazol-3-yl)pyridin-2-yl]-2,3-dihydro-1H-pyrrolo[3,4-c]pyridin-1-one]
24 | 6.83 | 9.00 | CCn1c(C)nnc1-c1cccc(N2Cc3c(cc(N4[C@H](C)CC[C@H]4C)nc3CNC)C2=O)n1 [Example 111, 6-[(2R,5R)-2,5-dimethylpyrrolidin-1-yl]-2-[6-(4-ethyl-5-methyl-4H-1,2,4-triazol-3-yl)pyridin-2-yl]-4-[(methylamino)methyl]-2,3-dihydro-1H-pyrrolo[3,4-c]pyridin-1-one]
25 | 6.37 | 8.83 | CNCc1nc(N2C[C@@H](C)O[C@@H](C)C2)cc2c1CN(c1cccc(-c3nncn3C(C)C)n1)C2=O [Example 112, 6-[2,6-dimethylmorpholin-4-yl]-4-[(methylamino)methyl]-2-{6-[4-(propan-2-yl)-4H-1,2,4-triazol-3-yl]pyridin-2-yl}-2,3-dihydro-1H-pyrrolo[3,4-c]pyridin-1-one]
26 | 7.08 | 9.66 | CCCn1cnnc1-c1cccc(N2Cc3c(cc(N4CCC[C@H]4C(F)(F)F)nc3CNC)C2=O)n1 [Example 113, 4-[(methylamino)methyl]-2-[6-(4-propyl-4H-1,2,4-triazol-3-yl)pyridin-2-yl]-6-[(2S)-2-(trifluoromethyl)pyrrolidin-1-yl]-2,3-dihydro-1H-pyrrolo[3,4-c]pyridin-1-one]

From US11142525B2 (Pfizer Inc., priority 2018, dated 2021)
